In paper PMC7825493, “Characterization of LDD-2633 as a Novel RET Kinase Inhibitor with Anti-Tumor Effects in Thyroid Cancer” (Pharmaceuticals, 2021):
Structures can show the parent of a compound that is named as a salt.

Target: RET kinase (Homo sapiens, UniProt P07949)
Experiment: HTRF KinEASE-TK (TR-FRET) kinase assay with recombinant RET, […] ATP
Assay type: biochemical

RET kinase, sequence (P07949 29-1114): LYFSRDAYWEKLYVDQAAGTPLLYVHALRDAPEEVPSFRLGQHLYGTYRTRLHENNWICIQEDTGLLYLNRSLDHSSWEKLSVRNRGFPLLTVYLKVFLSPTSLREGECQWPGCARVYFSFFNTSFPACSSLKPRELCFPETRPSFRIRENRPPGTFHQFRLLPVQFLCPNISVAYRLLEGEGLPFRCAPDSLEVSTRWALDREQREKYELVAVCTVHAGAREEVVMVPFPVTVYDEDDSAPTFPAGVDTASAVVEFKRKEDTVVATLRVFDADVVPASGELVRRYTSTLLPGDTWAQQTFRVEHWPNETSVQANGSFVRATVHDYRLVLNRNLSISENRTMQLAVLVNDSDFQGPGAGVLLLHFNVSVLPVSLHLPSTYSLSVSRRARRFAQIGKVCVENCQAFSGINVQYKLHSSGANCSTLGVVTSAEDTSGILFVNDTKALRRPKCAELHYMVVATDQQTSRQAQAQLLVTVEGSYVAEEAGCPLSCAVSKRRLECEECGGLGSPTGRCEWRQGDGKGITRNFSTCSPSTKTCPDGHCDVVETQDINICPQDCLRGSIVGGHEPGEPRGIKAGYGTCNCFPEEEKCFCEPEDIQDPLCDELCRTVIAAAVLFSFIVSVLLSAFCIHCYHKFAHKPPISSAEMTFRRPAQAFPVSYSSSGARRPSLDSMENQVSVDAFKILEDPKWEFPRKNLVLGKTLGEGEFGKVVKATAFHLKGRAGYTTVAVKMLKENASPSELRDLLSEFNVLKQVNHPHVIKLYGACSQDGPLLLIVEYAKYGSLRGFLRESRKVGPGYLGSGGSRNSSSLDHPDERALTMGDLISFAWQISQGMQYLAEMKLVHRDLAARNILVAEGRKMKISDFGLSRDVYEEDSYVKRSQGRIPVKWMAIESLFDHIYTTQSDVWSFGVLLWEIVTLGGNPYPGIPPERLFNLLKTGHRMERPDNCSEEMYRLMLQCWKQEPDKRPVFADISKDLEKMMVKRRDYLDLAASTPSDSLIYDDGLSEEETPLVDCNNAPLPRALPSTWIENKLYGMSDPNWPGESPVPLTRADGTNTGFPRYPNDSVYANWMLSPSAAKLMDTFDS

IC50: 4.42 nM
Compound: O=C1Nc2ccccc2/C1=C1/Nc2ccccc2/C1=N\OCCN1CCNCC1 [LDD-2633, (2Z,3E)-3-((2-(piperazin-1-yl)ethoxy)imino)-[2,3′-biindolinylidene]-2′-one hydrochloride]
